Results published in the supplement of paper PMC10307832.

What was measured:
Assay in all cases: relative viability (nuclei count vs DMSO), 5 days (fraction); higher = more cells survive
[1] = compound: Nc1ccn([C@@H]2O[C@H](CO)[C@@H](O)C2(F)F)c(=O)n1 [Gemcitabine] + CC1(C)CCC(c2ccc(Cl)cc2)=C(CN2CCN(c3ccc(C(=O)NS(=O)(=O)c4ccc(N[C@H](CCN5CCOCC5)CSc5ccccc5)c(S(=O)(=O)C(F)(F)F)c4)cc3)CC2)C1 [Navitoclax] (partner 0.5 µM)
Summary of the method: (§1)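 Each reported value is a median over duplicate plates. It expresses relative viability: treated-well nuclei count divided by vehicle-well nuclei count. Lung cancer cell lines in 1536-well plates were dosed by pin tool a day after seeding, alone with one drug or with a fixed anchor-drug dose plus five library-drug doses (not always all listed) in √10 steps, and nuclei were counted after 5 days.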

[2] = compound: Nc1ccn([C@@H]2O[C@H](CO)[C@@H](O)C2(F)F)c(=O)n1 [Gemcitabine] + C[C@@H](Oc1cc(-c2cnn(C3CCNCC3)c2)cnc1N)c1c(Cl)ccc(F)c1Cl [Crizotinib] (partner 1 µM)
Summary of the method: as §1

[3] = compound: Nc1ccn([C@@H]2O[C@H](CO)[C@@H](O)C2(F)F)c(=O)n1 [Gemcitabine] + Cc1nc(Nc2ncc(C(=O)Nc3c(C)cccc3Cl)s2)cc(N2CCN(CCO)CC2)n1 [Dasatinib] (partner 0.075 µM)
Summary of the method: as §1

[4] = compound: Nc1ccn([C@@H]2O[C@H](CO)[C@@H](O)C2(F)F)c(=O)n1 [Gemcitabine] + O=C(CCCCCCC(=O)Nc1ccccc1)NO [Vorinostat] (partner 1 µM)
Summary of the method: as §1

Cell Line | relative viability ([1]; first compound 0.001 µM) | relative viability ([1]; first compound 0.003162 µM) | relative viability ([1]; first compound 0.01 µM) | relative viability ([1]; first compound 0.03162 µM) | relative viability ([1]; first compound 0.1 µM) | relative viability ([2]; first compound 0.001 µM) | relative viability ([2]; first compound 0.003162 µM) | relative viability ([2]; first compound 0.01 µM) | relative viability ([2]; first compound 0.03162 µM) | relative viability ([2]; first compound 0.1 µM) | relative viability ([3]; first compound 0.001 µM) | relative viability ([3]; first compound 0.003162 µM) | relative viability ([3]; first compound 0.01 µM) | relative viability ([3]; first compound 0.03162 µM) | relative viability ([3]; first compound 0.1 µM) | relative viability ([4]; first compound 0.001 µM) | relative viability ([4]; first compound 0.003162 µM) | relative viability ([4]; first compound 0.01 µM) | relative viability ([4]; first compound 0.03162 µM) | relative viability ([4]; first compound 0.1 µM)
RERF-LC-KJ | 1.05 | 1.26 | 0.872 | 0.224 | 0.227 | 0.901 | 0.866 | 0.844 | 0.73 | 0.252 | 0.837 | 0.879 | 0.768 | 0.291 | 0.19 | 0.661 | 0.682 | 0.709 | 0.452 | 0.246
NCI-H1915 | 0.768 | 0.789 | 0.785 | 0.797 | 0.364 | 0.967 | 0.87 | 0.881 | 0.426 | 0.247 | 0.357 | 0.344 | 0.295 | 0.255 | 0.181 | 0.49 | 0.5 | 0.45 | 0.391 | 0.258
NCI-H596 | 1.06 | 0.949 | 0.506 | 0.23 | 0.171 | 1.04 | 1.02 | 0.531 | 0.391 | 0.345 | 0.528 | 0.521 | 0.289 | 0.242 | 0.215 | 0.657 | 0.497 | 0.272 | 0.251 | 0.2
NCI-H2009 | 1.25 | 0.87 | 0.366 | 0.0871 | 0.0975 | 1.18 | 0.841 | 0.227 | 0.102 | 0.0943 | 0.297 | 0.219 | 0.101 | 0.101 | 0.0766 | 0.604 | 0.552 | 0.289 | 0.115 | 0.0881
NCI-H2126 | 0.821 | 0.815 | 0.812 | 0.728 | 0.369 | 1.04 | 0.999 | 0.968 | 0.644 | 0.41 | 0.647 | 0.6 | 0.548 | 0.389 | 0.19 | 0.841 | 0.837 | 0.707 | 0.515 | 0.275
LXF-289 | 0.934 | 0.925 | 0.655 | 0.084 | 0.0735 | 0.786 | 0.783 | 0.562 | 0.127 | 0.112 | 0.227 | 0.22 | 0.0855 | 0.0424 | 0.0448 | 0.754 | 0.731 | 0.292 | 0.107 | 0.0902
PC-14 | 0.986 | 0.813 | 0.619 | 0.035 | 0.0244 | 0.903 | 0.569 | 0.308 | 0.0832 | 0.0612 | 0.262 | 0.12 | 0.0174 | 0.0131 | 0.016 | 0.82 | 0.165 | 0.0458 | 0.0558 | 0.0381
HOP-62 | 0.933 | 0.813 | 0.097 | 0.0507 | 0.0459 | 0.906 | 0.677 | 0.0595 | 0.051 | 0.0502 | 0.667 | 0.571 | 0.163 | 0.0786 | 0.0707 | 0.661 | 0.353 | 0.0836 | 0.0926 | 0.0697
